Assay results taken from patent US12077527B2, “Compositions and methods for inhibiting ACSS2” (THE TRUSTEES OF THE UNIVERSITY OF PENNSYLVANIA, priority 2017, dated 2024).

Key:
[1] = test system: primary hippocampal neurons; experiment: Western blots of lysates from primary hippocampal neurons treated with ACSS2i; assay type: cell-based, mouse; conditions: day 7 neurons, ACSS2i 24 hours, western blot
Protocol: Cells were lysed in buffer containing 50 mM Tris pH 8.0, 0.5 mM EDTA, 150 mM NaCl, 1% NP40, 1% SDS, supplemented with protease inhibitor cocktail (Life Technologies, number 78446). For subcellular fractionation experiments, the cells were processed using the subcellular fractionation kit for cultured cells (Thermo Scientific, number 78840) according to the manufacturer's instructions. Protein concentration was determined by BCA protein assay (Life Technologies, number 23227), and equal amounts of protein were used in co-immunoprecipitation experiments or directly loaded onto polyacrylamide gels. The endogenous co-immunoprecipitation experiments were performed using antibody-conjugated protein A Dynabeads (Life Technologies) in buffer containing: 20 mM Tris, pH 8.0, 137 mM NaCl, 1 mM MgCl2, 1 mM CaCl2, 1% NP-40, 10% glycerol, with protease and phosphatase inhibitors, and 12.5 U/mL benzonase (Novagen, 70746). Proteins or co-immunoprecipitation eluates were loaded and separated on 4-12% Bis-Tris polyacrylamide gels (NuPAGE). After transfer to nitrocellulose membrane, 3% BSA in TBS supplemented with 0.1% Tween 20 (TBST) was used to block the membrane at room temperature for 1 hour. Primary antibodies were diluted in TBST, and incubated at 4° C. overnight. Primary antibodies are listed below. The membrane was washed three times with TBST, each for 10 min, followed by incubation with HRP-conjugated secondary antibodies at room temperature for 1 hour, in TBST. The membrane was washed again three times, and imaged with a Fujifilm LAS-4000 imager. Original gel blots are provided as FIGS. 14-16. […]

[2] = test system: differentiated CAD neurons; experiment: Nuclear acetyl-CoA quantification (PicoProbe assay) in differentiated CAD neurons; assay type: cell-based, mouse; conditions: versus control, n=3
Protocol: (§1) CAD cells (Cath.-a-differentiated) were grown in Dulbecco's modified Eagle's medium (DMEM):Ham's F12 (1:1), supplemented with 2 mM glutamine, 1% penicillin/streptomycin, and 10% fetal bovine serum (FBS). To induce neuronal differentiation, sub-confluent CAD cell cultures (50-60%) were transferred to serum-free medium (DMEM:Ham's F12 (1:1) supplemented with 2 mM glutamine) and maintained in […] culture dishes for 5 days. […] For knockdown experiments, CAD cells were infected with lentiviral hairpin constructs (TRC collection) designed against ACL (#TRCN0000055217) or ACSS2 (#TRCN0000076124, #TRCN0000076125) in medium containing […] polybrene and 10% FBS for 24 hours. Cells then underwent selection in culture medium supplemented with 0.5 mg/mL puromycin for 5 days to obtain a stably infected population. Cell treatment with ACSS2i (1-(2,3-di(thiophen-2-yl)quinoxalin-6-yl)-3-(2-methoxyethyl)urea (DMSO)) was carried out for 24 hours at a final concentration of 20 μM (treatment with DMSO alone served as control).
To extract and quantify acetyl-CoA from differentiated CAD neurons, 4×10^6 cells were washed and incubated in lysis buffer for 30 min (10 mM Tris pH 8, 1 mM KCl, 1.5 mM MgCl2, 1 mM DTT). […] The PicoProbe assay was performed in 96-well clear-bottom plates, and the resulting fluorescence was quantified using the Synergy HTX Multi-Mode Microplate Reader (BioTek Instruments).

[3] = test system: differentiated CAD neurons; experiment: RNA-seq of differentiated CAD neurons treated with ACSS2i; assay type: cell-based, mouse
Protocol: as §1
To generate libraries for RNA-seq, poly(A)^+ RNA was extracted using the Dynabeads mRNA Direct kit (Ambion) according to the manufacturer's instructions. […] The quantity and quality of the libraries were assessed by BioAnalyzer (Agilent) and qPCR (Kapa Biosystems). The multiplexed libraries were pooled and sequenced on a single lane on the Illumina NextSeq 500 platform (50 bp, single-end reads). […] The aligned reads were mapped to genomic features using cufflinks-2.2.1, (-G parameter to quantify only known features), and iGenomes mml0 UCSC genomic transcript loci. The rRNA, […], and tRNA of the mouse genome were downloaded from the goldenPath UCSC FTP and were masked from the transcript quantification. After quantification, all data processing was done using python pandas library v.0.14.0. […] The statistical significance of the trend and reproducibility were assessed by taking the top 20% of genes by loss of expression in the knockdown and comparing the expression of these genes in inhibitor-treated cells to a random sample of genes outside this set (Mann-Whitney test).

[4] = test system: primary hippocampal neurons; experiment: RNA-seq of acetate-treated primary hippocampal neurons with or without ACSS2i; assay type: cell-based, mouse
Protocol: All RNA-seq data were prepared for analysis as follows: NextSeq sequencing data was demultiplexed using native apps on BaseSpace. Demultiplexed FASTQs were aligned by RNA-STAR 2.5.2 to assembly mml0 (GRCm38). Aligned reads were mapped to genomic features using HTSeq 0.6.1. Quantification, library size adjustment, and differential gene expression analysis was done using DESeq2 and Wald's test (pairwise contrasts between acetate and DMSO-treatment in the inhibitor-treated or untreated cells, followed by a set overlap of differentially expressed genes). Gene list overlaps were tested for significance using the hypergeometric test.
Next, the functional relevance of alcohol-derived acetate for ACSS2-dependent histone acetylation in regulating hippocampal gene expression was examined (FIG. 23E, right). […] However, in line with the ChIP-seq data, this response was markedly blunted in ACSS2 KD mice. […] Because alcohol and acetate have pleiotropic effects on brain circuitry and metabolism, an in vitro assay was then developed to more closely model the direct effects of exogenous acetate on gene expression. […]

ACSS2 = target: T1, ACSS2 (Mus musculus, UniProt Q9QXG4); experiment: Incorporation of alcohol-derived heavy acetyl groups into brain histone acetylation (Example 6); assay type: in vivo; conditions: mice treated with ACSS2 inhibitor
T1 construct: from tissue; host or cells: brain (hippocampus) of living mice
T1 sequence (Q9QXG4 whole entry): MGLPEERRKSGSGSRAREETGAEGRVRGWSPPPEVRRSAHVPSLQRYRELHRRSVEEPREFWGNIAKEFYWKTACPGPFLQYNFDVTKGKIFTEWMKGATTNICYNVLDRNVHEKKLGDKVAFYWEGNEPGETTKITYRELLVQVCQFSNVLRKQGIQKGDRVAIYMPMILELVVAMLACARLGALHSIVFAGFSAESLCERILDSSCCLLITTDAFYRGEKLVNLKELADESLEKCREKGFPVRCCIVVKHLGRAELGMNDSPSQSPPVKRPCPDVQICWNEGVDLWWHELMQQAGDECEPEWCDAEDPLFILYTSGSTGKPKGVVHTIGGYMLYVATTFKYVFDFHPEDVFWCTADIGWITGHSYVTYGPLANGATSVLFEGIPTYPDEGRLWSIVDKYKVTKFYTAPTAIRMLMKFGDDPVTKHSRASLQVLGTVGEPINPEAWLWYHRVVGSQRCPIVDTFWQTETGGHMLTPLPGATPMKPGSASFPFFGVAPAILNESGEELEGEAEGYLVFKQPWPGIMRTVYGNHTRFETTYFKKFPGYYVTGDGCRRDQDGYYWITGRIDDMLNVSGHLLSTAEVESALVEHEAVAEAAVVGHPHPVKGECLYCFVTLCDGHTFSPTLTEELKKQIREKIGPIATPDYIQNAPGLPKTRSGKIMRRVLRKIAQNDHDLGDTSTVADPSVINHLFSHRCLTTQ
Protocol: To investigate the direct role of ACSS2 in alcohol-dependent acetylation in the brain, mice are treated with an ACSS2 inhibitor, ADG-204, ADG-205, ADG-206, or ADG-207. […] In contrast, in control mice, vHPC incorporation of the heavy label is not affected. Thus, acetate derived from hepatic alcohol metabolism is transported to the brain and readily incorporated into histone acetylation.

COCCNC(=O)Nc1ccc2nc(-c3cccs3)c(-c3cccs3)nc2c1 [ACSS2i, 1-(2,3-di(thiophen-2-yl)quinoxalin-6-yl)-3-(2-methoxyethyl)urea]
ACSS2 levels [1]: without lowering ACSS2 levels | histone acetylation [1]: reduced | neuronal marker expression [1]: reduced | Nuclear acetyl-CoA levels, mean Δ [2]: −0.25±0.05 | expression of differentiation-induced genes (RNA-seq) ([3]; 24-hour ACSS2i 20 μM vs DMSO): a reduction in differentiation-induced genes | expression of ND genes (genes linked to neuronal differentiation, 1,315 genes) ([3]; ACSS2i-treated vs DMSO-treated CAD neurons): markedly reduced | genes that showed reduced expression upon ACSS2i treatment ([3]; RNA-seq, 24-hour ACSS2i 20 μM vs DMSO): 299 genes | regulation of acetate-induced genes by ACSS2i ([4]; in the absence of acetate): not regulated | acetate-induced genes that failed to become upregulated in the presence of ACSS2i ([4]; of 3613 acetate-induced genes, 10 mM acetate 24 hours): 2107 genes

CCCCCNC(=O)Nc1ccc2nc(-c3cccs3)c(-c3cccs3)nc2c1 [ADG-204, 1-(2,3-di(thiophen-2-yl)quinoxalin-6-yl)-3-penlylurea]
incorporation of alcohol-derived heavy acetyl groups into histone acetylation (ACSS2): prevents the incorporation of alcohol-derived heavy acetyl groups into histone acetylation

COCCNC(=O)Nc1ccc2nc(-c3cccs3)c(-c3cccs3)nc2c1 [ADG-205, 1-(2,3-di(thiophen-2-yl)quinoxalin-6-yl)-3-(2-methoxyethyl)urea]
incorporation of alcohol-derived heavy acetyl groups into histone acetylation (ACSS2): prevents the incorporation of alcohol-derived heavy acetyl groups into histone acetylation

CNC(=O)Nc1ccc2nc(-c3cccs3)c(-c3cccs3)nc2c1 [ADG-206, 1-(2,3-di(thiophen-2-yl)quinoxalin-6-yl)-3-methylurea]
incorporation of alcohol-derived heavy acetyl groups into histone acetylation (ACSS2): prevents the incorporation of alcohol-derived heavy acetyl groups into histone acetylation

O=C(Nc1ccc2nc(-c3cccs3)c(-c3cccs3)nc2c1)NC12CC3CC(CC(C3)C1)C2 [ADG-207, 1-((1S,3s)-adamantan-1-yl)-3-(2,3-di(thiophen-2-yl)quinoxalin-6-yl)urea]
incorporation of alcohol-derived heavy acetyl groups into histone acetylation (ACSS2): prevents the incorporation of alcohol-derived heavy acetyl groups into histone acetylation
